Measured values reported in the supplement of paper PMC3974653.
Structures can show the parent of a compound that is named as a salt.

Tested on: MTT (mouse pheochromocytoma)
Assay: IC50 of cell viability (ATP content)
Settings: (24 or 48 h)
In short: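 Library compounds in DMSO (23 nl by pintool, 8 concentrations, final 0.5 nM to 46 µM) were applied for 24 or 48 hrs to MTT mouse pheochromocytoma cells that had been cultured overnight at 37°C, 5% CO2 in white 1536-well plates. Cell viability was measured by CellTiter-Glo ATP luminescence, read after 15 minutes, with positive-control wells set at 100% and DMSO wells at 0%. A four-parameter logistic fit of the normalised signals yielded the IC50.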

| SMILES | IC50 of cell viability [µM] |
| --- | --- |
| CN1C(=O)C(O)N=C(c2ccccc2)c2cc(Cl)ccc21 (configuration not stated) [Temazepam] | > 46 |
| CN1\C(=C(\O)C2=C(C=CS2)[S+]1([O-])=O)C(=O)NC3=CC=CC=N3 [Tenoxicam] | > 46 |
| COc1cc2nc(N3CCN(C(=O)[C@H]4CCCO4)CC3)nc(N)c2cc1OC [Terazosin hydrochloride] | > 46 |
| CN(C/C=C/C#CC(C)(C)C)Cc1cccc2ccccc12 [Terbinafine] | > 46 |
| C[C@]12C=CC(=O)C=C1CC[C@@H]1C2CC[C@]2(C)OC(=O)CCC12 (some centres not stated) [Testolactone] | > 46 |
| C[C@]12CCC3[C@@H](CCC4=CC(=O)CC[C@@]43C)C1CCC2OC(=O)CCc1ccccc1 (some centres not stated) [Testosterone 17-phenylpropionate] | > 46 |
| CCC(=O)O[C@@H]1CC[C@@H]2[C@@H]3CC\C4=C\C(=O)CC[C@@]4(C)[C@H]3CC[C@@]12C [Testosterone propionate] | > 46 |
| C[C@]12CC[C@H]3[C@@H](CC/C4=C/C(=O)CC[C@]34C)[C@@H]1CC[C@H]2O [Testosterone] | > 46 |
| COc1cc2c(cc1OC)C1CC(=O)C(CC(C)C)CN1CC2 (configuration not stated) [Tetrabenazine] | > 46 |
| CN(C)[C@@H]\1[C@@H]2C[C@H]3\C(=C(\O)[C@@]2(O)C(=O)\C(=C1O)C(N)=O)C(=O)C4=C(C=CC=C4O)[C@@]3(C)O [Tetracycline hydrochloride] | > 46 |
| CCCCCCCCCCCCCC(=O)OC(C)C [Tetradecanoic acid, 1-methylethyl ester] | > 46 |
| CC[N+](CC)(CC)CC.[Cl-] [Tetraethylammonium chloride] | > 46 |

Now from value to molecule:

| IC50 of cell viability [µM] | SMILES |
| --- | --- |
| > 46 | COc1cc2c(N3CCN(C(=O)Nc4ccc(OC(C)C)cc4)CC3)ncnc2cc1OCCCN1CCCCC1 [Tandutinib] |
| > 46 | O=C([O-])c1cccc(/C=C2/C[C@@H]3[C@@H](/C=C/[C@@H](O)C4CCCCC4)[C@H](O)C[C@@H]3O2)c1 [Taprostene sodium salt] |
| > 46 | O=C([O-])C1=NN(c2ccc(S(=O)(=O)[O-])cc2)C(=O)/C1=N\Nc1ccc(S(=O)(=O)[O-])cc1 [Tartrazine] |
| > 46 | CCCCOC(=O)C(=O)Nc1cccc(-c2nnn[nH]2)c1 [Tazanolast] |
| > 46 | CC1(Cn2ccnn2)[C@H](C(=O)O)N2C(=O)C[C@H]2[S+]1(=O)[O-] (some centres not stated) [Tazobactam sodium] |
| > 46 | CC1CN(CCN1)C2=CC3=C(C=C2F)C(=O)\C(=C/N3C4=CC=C(F)C=C4F)C(O)=O (configuration not stated) [Temafloxacin] |
| > 46 | Oc1cccc(-c2c3nc(c(-c4cccc(O)c4)c4ccc([nH]4)c(-c4cccc(O)c4)c4nc(c(-c5cccc(O)c5)c5ccc2[nH]5)CC4)C=C3)c1 [Temoporfin] [listing 1 of 2 here] |
| > 46 | Oc1cccc(-c2c3nc(c(-c4cccc(O)c4)c4ccc([nH]4)c(-c4cccc(O)c4)c4nc(c(-c5cccc(O)c5)c5ccc2[nH]5)CC4)C=C3)c1 [Temoporfin] [listing 2 of 2 here] |
| > 46 | O=C1/C(=C\c2cccs2)CCC/C1=C/c1cccs1 [Tenilidona] |
| > 46 | O=C(Nc1ncc([N+](=O)[O-])s1)c1cccs1 [Tenonitrozol] |
| > 46 | CC(C)(C)NC[C@H](O)c1cc(O)cc(O)c1 [Terbutaline hemisulfate] |
| > 46 | CC(C)N1CCN(c2ccc(OC[C@@H]3CO[C@@](Cn4cncn4)(c4ccc(Cl)cc4Cl)O3)cc2)CC1 [Terconazole] |
| > 46 | CC(C)(C)c1ccc(C(O)CCCN2CCC(C(O)(c3ccccc3)c3ccccc3)CC2)cc1 (configuration not stated) [Terfenadine] |
| > 46 | CC(CC(c1ccccc1)c1ccccc1)NC(C)(C)C (configuration not stated) [Terodiline hydrochloride] |
| > 46 | CCO[C@@H](Cc1ccc(OCCc2ccc(O[S+](C)(=O)[O-])cc2)cc1)C(=O)O [Tesaglitazar] |
